Data reported in PubChem BioAssay AID1259411 (Chemical Carcinogenesis Research Information System (CCRIS), 2018).
Calls of active or inactive are those of the source. The rule behind the calls is not given here.

Test system: rodent carcinogenicity bioassays, tumor incidence
Experiment: CCRIS carcinogenicity studies
How it was run: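 NCI-built, expert-reviewed records of carcinogenicity and related test outcomes (mutagenicity, tumor promotion/inhibition) compiled from published and report sources, historical span 1985-2011, not updated.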

Compound: CCCCC(CC)COP(=O)(OCC(CC)CCCC)OCC(CC)CCCC (stereo not given)
- carcinogen call (Species: MOUSE, Strain/Sex: B6C3F1/FEMALE, Route: GAVAGE, Dose: 0, 500, 1000 MG/KG IN CORN OIL 1/D 5 D/WK FOR 102-104 WK (STUDY DURATION: 102-104 WK), Dose: 0, 500, 1000 MG/KG IN CORN OIL 1/D 5 D/WK FOR 102-104 WK (STUDY DURATION: 102-104 WK), Tumor Site: Type of Lesion: LIVER: CARCINOMA, CARCINOMA OR ADENOMA): active; positive
- carcinogen call (Species: MOUSE, Strain/Sex: B6C3F1/FEMALE, Route: GAVAGE, Dose: 0, 500, 1000 MG/KG IN CORN OIL 5/WK FOR 103 WK (STUDY DURATION: 104 WK), Dose: 0, 500, 1000 MG/KG IN CORN OIL 5/WK FOR 103 WK (STUDY DURATION: 104 WK), Tumor Site: Type of Lesion: LIVER: ADENOMA, CARCINOMA): active; positive
- carcinogen call (Species: MOUSE, Strain/Sex: B6C3F1/MALE, Route: GAVAGE, Dose: 0, 500, 1000 MG/KG IN CORN OIL 1/D 5 D/WK FOR 102-104 WK (STUDY DURATION: 102-104 WK), Dose: 0, 500, 1000 MG/KG IN CORN OIL 1/D 5 D/WK FOR 102-104 WK (STUDY DURATION: 102-104 WK)): inactive; negative
- carcinogen call (Species: MOUSE, Strain/Sex: B6C3F1/MALE, Route: GAVAGE, Dose: 0, 500, 1000 MG/KG IN CORN OIL 5/WK FOR 103 WK (STUDY DURATION: 104 WK), Dose: 0, 500, 1000 MG/KG IN CORN OIL 5/WK FOR 103 WK (STUDY DURATION: 104 WK)): inactive; negative
- carcinogen call (Species: RAT, Strain/Sex: F344/FEMALE, Route: GAVAGE, Dose: 0, 1000, 2000 MG/KG IN CORN OIL 5/WK FOR 103 WK (STUDY DURATION: 103 WK), Dose: 0, 1000, 2000 MG/KG IN CORN OIL 5/WK FOR 103 WK (STUDY DURATION: 103 WK)): inactive; negative
- carcinogen call (Species: RAT, Strain/Sex: F344/FEMALE, Route: GAVAGE, Dose: 0, 1000, 2000 MG/KG IN CORN OIL 5 D/WK FOR 102-104 WK (STUDY DURATION: 102-104 WK), Dose: 0, 1000, 2000 MG/KG IN CORN OIL 5 D/WK FOR 102-104 WK (STUDY DURATION: 102-104 WK)): inactive; negative
- carcinogen call (Species: RAT, Strain/Sex: F344/MALE, Route: GAVAGE, Dose: 0, 2000, 4000 MG/KG IN CORN OIL 5/WK FOR 103 WK (STUDY DURATION: 104 WK), Dose: 0, 2000, 4000 MG/KG IN CORN OIL 5/WK FOR 103 WK (STUDY DURATION: 104 WK), Tumor Site: Type of Lesion: ADRENAL GLAND: PHEOCHROMOCYTOMA): equivocal
- carcinogen call (Species: RAT, Strain/Sex: F344/MALE, Route: GAVAGE, Dose: 0, 2000, 4000 MG/KG IN CORN OIL 5 D/WK FOR 102-104 WK (STUDY DURATION: 102-104 WK), Dose: 0, 2000, 4000 MG/KG IN CORN OIL 5 D/WK FOR 102-104 WK (STUDY DURATION: 102-104 WK)): inactive; negative

Compound: OCc1ccc2ccc3cccc4ccc1c2c34
- carcinogen call (Species: RAT, Strain/Sex: SPRAGUE-DAWLEY/FEMALE, Route: SUBCUTANEOUS, Dose: 0, 0.2 UMOL IN 0.1 ML SESAME OIL:DMSO (9:1) 1/2 D FOR 20 DOSES (STUDY DURATION: 52 WK)): inactive; negative

Compound: O=c1[nH]cc(N(CCCl)CCCl)c(=O)[nH]1
- carcinogen call (Species: MOUSE, Strain/Sex: STRAIN-A/MALE,FEMALE, Route: INTRAPERITONEAL, Dose: 0.18-12 MG/KG IN 12 DOSES OVER 4 WK, Tumor Site: Type of Lesion: LUNG: ADENOMA): active; positive
- carcinogen call (Species: MOUSE, Strain/Sex: STRAIN-A/MALE,FEMALE, Route: INTRAPERITONEAL, Dose: 8, 20, 40 MG/KG FOR 7 DOSES OVER 24 WK, Dose: 8, 20, 40 MG/KG FOR 7 DOSES OVER 24 WK, Tumor Site: Type of Lesion: LUNG: ADENOMA): active; positive
- carcinogen call (Species: RAT, Strain/Sex: STRAIN-CD/FEMALE, Route: INTRAPERITONEAL, Dose: 0.15, 0.3 MG/KG 3/WK FOR 6 MO, Tumor Site: Type of Lesion: LYMPHATIC SYSTEM: LYMPHOMA, PERITONEAL CAVITY: SARCOMA, MAMMARY GLAND: CARCINOMA, OVARIES: CARCINOMA, Tumor Site: Type of Lesion: LYMPHATIC SYSTEM: LYMPHOMA, PERITONEAL CAVITY: SARCOMA, MAMMARY GLAND: CARCINOMA, OVARIES: CARCINOMA): active; positive
- carcinogen call (Species: RAT, Strain/Sex: STRAIN-CD/MALE, Route: INTRAPERITONEAL, Dose: 0.15, 0.3 MG/KG 3/WK FOR 6 MO, Tumor Site: Type of Lesion: LYMPHATIC SYSTEM: LYMPHOMA, PANCREAS, PERITONEAL CAVITY: SARCOMA, Tumor Site: Type of Lesion: LYMPHATIC SYSTEM: LYMPHOMA, PANCREAS, PERITONEAL CAVITY: SARCOMA): active; positive

Compound: CCNN
- carcinogen call (Species: MOUSE, Strain/Sex: SWISS/FEMALE, Route: ORAL, Dose: 0, 0.0125% IN DRINKING WATER FOR LIFE FOR AN AVERAGE DAILY DOSE OF 0, 0.92 MG (STUDY DURATION: 130 WK), Dose: 0, 0.0125% IN DRINKING WATER FOR LIFE FOR AN AVERAGE DAILY DOSE OF 0, 0.92 MG (STUDY DURATION: 130 WK), Tumor Site: Type of Lesion: LUNG: ADENOMA OR ADENOCARCINOMA, BLOOD VESSEL: ANGIOSARCOMA OR ANGIOMA): active; positive
- carcinogen call (Species: MOUSE, Strain/Sex: SWISS/MALE, Route: ORAL, Dose: 0, 0.0125% IN DRINKING WATER FOR LIFE FOR AN AVERAGE DAILY DOSE OF 0, 1.52 MG (STUDY DURATION: 130 WK), Dose: 0, 0.0125% IN DRINKING WATER FOR LIFE FOR AN AVERAGE DAILY DOSE OF 0, 1.52 MG (STUDY DURATION: 130 WK), Tumor Site: Type of Lesion: LUNG: ADENOMA OR ADENOCARCINOMA, BLOOD VESSEL: ANGIOSARCOMA OR ANGIOMA): active; positive

Compound: CNC(=O)Oc1cc(C)c(N(C)C)c(C)c1
- carcinogen call (Species: MOUSE, Strain/Sex: B6C3F1/FEMALE, Route: ORAL, Dose: 0, 68, 135 PPM IN DIET, TWA, Dose: 0, 68, 135 PPM IN DIET, TWA): inactive; negative
- carcinogen call (Species: MOUSE, Strain/Sex: B6C3F1/MALE, Route: ORAL, Dose: 0, 327, 654 PPM IN DIET, TWA, Dose: 0, 327, 654 PPM IN DIET, TWA): inactive; negative
- carcinogen call (Species: RAT, Strain/Sex: OSBORNE-MENDEL/FEMALE, Route: ORAL, Dose: 0, 339, 678 PPM IN DIET, TWA, Dose: 0, 339, 678 PPM IN DIET, TWA): inactive; negative
- carcinogen call (Species: RAT, Strain/Sex: OSBORNE-MENDEL/MALE, Route: ORAL, Dose: 0, 209, 418 PPM IN DIET, TWA, Dose: 0, 209, 418 PPM IN DIET, TWA): inactive; negative

Compound: O=C(O)[C@H]1O[C@@H](N(O)c2ccc3c(c2)Cc2ccccc2-3)[C@H](O)[C@@H](O)[C@@H]1O
- carcinogen call (Species: RAT, Strain/Sex: F344/MALE, Route: INJECTION, Dose: 0, 1 UMOL IN 0.5 ML OF SOLUTION CONTAINING 0.4 ML PHOSPHATE BUFFERED SALINE/ GENTAMYCIN (PH 7) AND 0.1 ML DMSO INJECTED, Tumor Site: Type of Lesion: BLADDER: CARCINOMA): active; positive
